Experimental data from PMC8154566, “Scaffold-Hopping Strategy on a Series of Proteasome Inhibitors Led to a Preclinical Candidate for the Treatment of Visceral Leishmaniasis” (Journal of Medicinal Chemistry, 2021).
Values after ≈ are worked out from the molar mass of the structure shown. Read-outs that look alike come from different tables or passages of the source.

What was measured:
L. donovani amastigotes = assay: INMAC assay: intramacrophage L. donovani in differentiated THP-1 cells; format: cell-based, Leishmania donovani; settings: for IC50 / EC50: Leishmania donovani; for IC50: THP-1, read-out: LdInMac pIC50 (converted)
Description: (§1) Intramacrophage L. donovani Assay. This assay was conducted as previously described, except for […]

THP-1 cells = assay: THP-1 host cell read-out of the INMAC assay; format: cell-based; settings: for EC50 / IC50: Homo sapiens
Description: as §1

[1] = Mouse liver microsomal intrinsic clearance; format: in vitro ADME; settings: for Mouse CLi: mouse liver microsomes; for Cli (mouse, ml/min/g): supplementary csv
Description: (§2) Intramacrophage L. donovani Assay. This assay was conducted as previously described, except for compound exposure time, which was 96 h instead of 72 h.4
(§3) Intrinsic Clearance. This assay was conducted as previously described.5 Aqueous Solubility. This assay was conducted as previously described.6
(§4) FaSSIF Solublity. This assay was conducted as previously described.5,7
(§5) In vivo Mouse Efficacy Studies. In vivo studies were carried out as previously described, with minor modifications.7 Briefly: Control drug used was Miltefosine (30 mg/kg orally, twice daily for 5 days), vehicle used was 10% (v/v) dimethyl sulfoxide (DMSO), 40% polyethylene glycol 400, and 50% deionized water (10 Ml/kg orally, twice daily for 5 days) and mice were treated with test compound intraperitoneally (50 mg/kg twice daily for 5 days). 5
(§6) All regulated procedures on living animals were carried out under the authority of a project license issued by the Home Office under the Animals (Scientific Procedures) Act 1986, as amended in 2012 (and in compliance with EU Directive EU/2010/63). Infected animals had access to food and water ad libitum and were housed under a 12 hour light/dark photoperiod. Animals used in these experiments were female NMRI and Balb/c mice (Harlan, UK).
(§7) Test compound DDD01008714 was dosed orally (P.O.) at 10 mg free base/kg (dose volume 10 mL/kg; dose vehicle: 10% (vol/vol) dimethyl sulfoxide (DMSO), 40% polyethylene glycol 400 (PEG400) and 50% deionized water) to female NMRI mice (n = 3) or intravenously (I.V.) at 3 mg free base/kg (dose volume 5 mL/kg; dose vehicle: 10% (vol/vol) dimethyl sulfoxide (DMSO) and 90% Saline) to female Balb/c mice (n = 3). Blood samples (10 μL) where taken from the tail vein of […]

[2] = Kinetic aqueous solubility by CLND; format: physicochemical
Description: We had successfully used these criteria in the hit to lead stage to identify compounds for in vivo proof-of-concept studies in another program, which subsequently led to the identification of preclinical candidate DDD853651/GSK3186899 active against CRK12.[7] […] A pharmacokinetic (PK) study was thus performed, dosed at 10 mg/kg po and 3 mg/kg iv. […] With the limited knowledge of the PK/PD drivers for the treatment of VL, we considered this to be a suitable profile for the progression of 4 into a previously reported mouse efficacy model of VL,[6],[7],[17],[18] where it was dosed twice daily at 50 mg/kg ip in order to further maximize exposure and give the best chance of achieving proof-of-concept.
as §2, §3, §4, §5, §6, §7

[3] = FaSSIF (fasted state simulated intestinal fluid) solubility; format: physicochemical; settings: for solubility at 4 h: pH 6.5, Table 6
Description: as §2, §3, §4, §5, §6, §7

[4] = THP-1, supplementary csv, read-out: THP1 pIC50 (converted)
[5] = THP-1, Table 5, at least three replicates, SD ≤0.4, read-out: INMAC pEC50 (converted)
[6] = Table 5, at least three replicates, SD ≤0.4
[7] = THP-1, Table 5, read-out: THP-1 pEC50 (converted)
[8] = Table 5, kinetic, CLND, read-out: Aq. solubility
[9] = THP-1, Table 6, at least three replicates, SD ≤0.4, read-out: INMAC pEC50 (converted)
[10] = THP-1, Table 6, read-out: THP-1 pEC50 (converted)

Molecule	IC50 (L. donovani amastigotes) [µM]	IC50 (THP-1 cells; [4]) [µM]	Cli (mouse, ml/min/g) [1] [mL/min/g]	EC50 (L. donovani amastigotes; [5]) [µM]	INMAC pEC50 (L. donovani amastigotes; [6])	EC50 (THP-1 cells; [7]) [µM]	Mouse CLi ([1]; Table 5) [mL/min/g]	other results
O=C(Nc1cccc(-c2nc3ccccc3o2)c1)c1ccco1 [Compound 14]	> 50.1	> 50.1	50	–	–	–	–	EC50 (L. donovani amastigotes; THP-1, Table 3, at least three replicates, SD ≤0.4, read-out: INMAC (pEC50) (converted)): > 50.1 µM; INMAC pEC50 (L. donovani amastigotes; Table 3, at least three replicates, SD ≤0.4): no activity; EC50 (THP-1 cells; THP-1, Table 3, read-out: THP-1 (pEC50) (converted)): > 50.1 µM; Mouse CLi ([1]; Table 3): 50 mL/min/g
O=C(Nc1cccc(-c2cc3ncc(-c4ccccc4)cn3n2)c1)N1CCCC1 [Compound 16, N-(3-(6-Phenylpyrazolo[1,5-a]pyrimidin-2-yl)phenyl)pyrrolidine-1-carboxamide]	> 50.1	> 50.1	3.6	> 50.1	inactive	> 50.1	3.6	–
O=C(Nc1cccc(-c2cc3cc(-c4ccccc4)cnc3[nH]2)c1)N1CCCC1 [Compound 17, N-(3-(5-Phenyl-1H-pyrrolo[2,3-b]pyridin-2-yl)phenyl)pyrrolidine-1-carboxamide]	> 50.1	> 50.1	1.7	–	inactive	–	1.7	EC50 (L. donovani amastigotes; THP-1, read-out: INMAC pEC50 (converted)): > 50.1 µM; EC50 (THP-1 cells; THP-1, read-out: THP-1 pEC50 (converted)): > 50.1 µM; solubility [2, 8]: 3 µM (≈ 1.15 µg/mL)
O=C(Nc1ccc(F)c(-c2cc3nc(N4CCOCC4)cnc3[nH]2)c1)N1CCCC1 [Compound 18, N-(4-Fluoro-3-(2-morpholino-5H-pyrrolo[2,3-b]pyrazin-6-yl)phenyl)pyrrolidine-1-carboxamide]	> 50.1	–	–	> 50.1	inactive	> 50.1	10	IC50 (THP-1 cells; THP-1, read-out: THP1 pIC50 (converted)): > 50.1 µM; solubility [2, 8]: 135 µM (≈ 55.4 µg/mL); solubility ([2]; supplementary csv, read-out: Aqueous Solubility): 10 µM (≈ 4.1 µg/mL)
Cn1c(-c2cc(NC(=O)N3CCCC3)ccc2F)cc2cc(N3CCOCC3)cnc21 [Compound 19, N-[4-Fluoro-3-(1-methyl-5-morpholino-pyrrolo[2,3-b]pyridin-2-yl)phenyl]pyrrolidine-1-carboxamide]	> 50.1	> 50.1	2.4	> 50.1	inactive	> 50.1	2.4	–
CN1CCOCC1c1cnc2nc(-c3cc(NC(=O)N4CCCC4)ccc3F)ccn12 (centres unmarked) [Compound 33, N-(4-Fluoro-3-(3-(4-methylmorpholin-3-yl)imidazo[1,2-a]pyrimidin-7-yl)phenyl)pyrrolidine-1-carboxamide]	–	50.1	3.8	–	–	–	–	EC50 (L. donovani amastigotes; [9]): 5.01 µM; EC50 (THP-1 cells; [10]): 50.1 µM; solubility at 4 h [3]: 2340 µM (≈ 994 µg/mL); solubility ([3]; supplementary csv): > 1000 µM; Mouse CLi ([1]; Table 6): 3.8 mL/min/g
O=C1CN(c2cnc3nc(-c4cc(NC(=O)N5CCCC5)ccc4F)ccn23)CCN1 [Compound 37, N-(4-Fluoro-3-(3-(3-oxopiperazin-1-yl)imidazo[1,2-a]pyrimidin-7-yl)phenyl)pyrrolidine-1-carboxamide]	> 50.1	> 50.1	1.1	–	–	–	–	EC50 (L. donovani amastigotes; [9]): > 50.1 µM; EC50 (THP-1 cells; [10]): > 50.1 µM; solubility at 4 h [3]: 815 µM (≈ 345 µg/mL); solubility ([3]; supplementary csv): 820 µM (≈ 347 µg/mL); Mouse CLi ([1]; Table 6): 1.1 mL/min/g
N-(3-(7-Phenylimidazo[1,2-b][1,2,4]triazin-3-yl)phenyl)pyrrolidine-1-carboxamide [Compound 27]	–	–	3.3	–	5.9	–	3.3	LdInMac pIC50 (L. donovani amastigotes; supplementary csv): 5.9; THP-1 pEC50 (THP-1 cells; Table 5): <4.3; THP1 pIC50 (THP-1 cells; supplementary csv): <4.3; solubility ([3]; Table 5): 3.0 µM
